Measurements: patent US9457095B2, “Pharmaceutical compositions providing enhanced drug concentrations” (Bend Research, Inc., priority 1999, dated 2016)
Values after ≈ are worked out from the molar mass of the structure shown. Counter-ions that a name gives are not always drawn.

Experiments:
Format in all cases: physicochemical
[1] = solubility of Drug 6 salt forms; conditions: Drug 6 salts
[2] = microcentrifuge dissolution, sertraline lactate (Drug 2) with polymer
Experimental: For these tests, 1.8 mg sertraline lactate was added to 0.9 mL HPLC water in each of six microcentrifuge tubes. For Control 4, 0.9 mL 2×PBS (PBS solution with 2 times the standard buffer salt concentration), adjusted to pH 8.0, was added to Tubes 1 and 2. For Example 10, 0.9 mL 2×PBS (pH 8.0) containing 3.6 mg of HPMCAS-MF was added to Tubes 3 and 4. For Example 11, 0.9 mL 2×PBS (pH 8.0) containing 3.6 mg of CAT was added to Tubes 5 and 6.
Dissolution performance was measured at 37° C. using the microcentrifuge method described in Example 1. Samples were taken after 4, 10, 20, 40, 90, and 180 minutes as described in Example 1. Samples were diluted in 35% H2O/65% ACN (vol./vol.), and analyzed by HPLC. The mobile phase was 35 vol. % 0.025 M triethylamine with 0.05M acetic acid in HPLC water in ACN. The analytical column used was a Phenomenex ODS 20, and the drug concentration was determined using diode array detection at 230 nm.

[3] = microcentrifuge dissolution, ziprasidone mesylate (Drug 3) with polymer; conditions: for [Drug 3]: PBS, 37° C.
Experimental: Ziprasidone mesylate (Drug 3) is the soluble salt form of the antipsychotic drug ziprasidone. For these tests, 0.5 mg drug was added to each of 8 microcentrifuge tubes. For Control 5, no concentration-enhancing polymer was added to Tubes 1 and 2. For Example 12, 1.0 mg of CAT was added to Tubes 3 and 4. For Example 13, 1.0 mg of CAP (NF grade from Eastman Fine Chemical of Kingsport, Tenn.) was added to Tubes 5 and 6. For Example 14, 1.0 mg HPMCP (NF grade from Eastman Chemical Company) was added to Tubes 7 and 8.
Dissolution performance was measured at 37° C. using the microcentrifuge method described in Example 1. For each test, 0.616 mg of Drug 3 was added to the microcentrifuge tube. At time 0, 1.8 mL PBS was added to each of the tubes. Drug concentration was measured using HPLC, with a mobile phase of 60 vol. % 0.02 M KH2PO4, pH 3.0 in ACN, and diode array detection at 254 nm.

[4] = solubility of sertraline forms; conditions: for solubility: sertraline forms, pH 3, expressed as the free base
[5] = Cmax of Drug 1 forms in MFD solution; conditions: pH 6.5 MFD solution
[6] = microcentrifuge dissolution, amorphous Drug 1 with varying ratios of HPMCAS-MF; conditions: 15 mg amorphous Drug 1 in 1.5 mL PBS, 37° C.
Experimental: Amorphous Drug 1 (15 mg) was added to microcentrifuge tubes containing 1.5 mL of PBS solution and varying concentrations of HPMCAS-MF. Dissolution performance was measured at 37° C. using the microcentrifuge method described in Example 1. Drug concentration was measured at 1.5 hours and at 20 hours for each polymer concentration.

[7] = solubility of Drug 4 polymorphs in water; conditions: Drug 4 mesylate polymorph

Q: Which results are given for “4-[3-[4-(2-methylimidazol-1-yl) phenylthio] phenyl]-3,4,5,6-tetrahydro-2H-pyran-4-carboxamide hemifumarate [Drug 6 hydrochloride salt]”?
A: solubility ([1]; pH 4): 0.37 mgA/mL; solubility ([1]; pH 7): 0.0009 mgA/mL

Q: With “4-[3-[4-(2-methylimidazol-1-yl) phenylthio] phenyl]-3,4,5,6-tetrahydro-2H-pyran-4-carboxamide hemifumarate [Drug 6]” as the compound, how does the solubility ([1]; pH 4, listed as Drug 6 mesylate salt) read?
A: Its solubility is 3.7 mgA/mL.

Q: And the solubility ([1]; pH 7, listed as Drug 6 mesylate salt)?
A: The solubility was 0.0042 mgA/mL.

Q: What does the source list for `CN[C@H]1CC[C@@H](c2ccc(Cl)c(Cl)c2)c2ccccc21` [Control 4]?
A: [Drug 2] ([2]; 10 mins): 89 µg/mL; [Drug 2] ([2]; 20 mins): 72 µg/mL; [Drug 2] ([2]; 40 mins): 67 µg/mL; [Drug 2] ([2]; 90 mins): 63 µg/mL; [Drug 2] ([2]; 180 mins): 60 µg/mL; AUC180 ([2]; Drug 2 dissolution): 11,700 min * μg/mL; Cmax ([2]; Drug 2 dissolution): 101 µg/mL; [Drug 2] ([2]; PBS (2x PBS pH 8.0 added), 37° C., 4 mins): 101 µg/mL

Q: With `CS(=O)(=O)O.O=C1Cc2cc(CCN3CCN(c4nsc5ccccc45)CC3)c(Cl)cc2N1` [Control 5] as the compound, how does the AUC180 ([3]; Drug 3 dissolution in PBS) read?
A: The AUC180 was 1000 µg·min/mL.

Q: What about the Cmax ([3]; Drug 3 dissolution in PBS) of the same compound?
A: The Cmax was 11 µg/mL.

Q: And the “[Drug 3]” value ([3]; 10 mins)?
A: Its value is 3 µg/mL.

Q: What about the “[Drug 3]” value ([3]; 20 mins) of the same compound?
A: Its value is 11 µg/mL.

Q: What about the “[Drug 3]” value ([3]; 40 mins) of the same compound?
A: The value was 6 µg/mL.

Q: What about the “[Drug 3]” value ([3]; 90 mins) of the same compound?
A: Its value is 7 µg/mL.

Q: What about the “[Drug 3]” value ([3]; 180 mins) of the same compound?
A: The value was 1 µg/mL.

Q: For `CN[C@H]1CC[C@@H](c2ccc(Cl)c(Cl)c2)c2ccccc21` [Drug 2, sertraline lactate], which solubility [4] is on record?
A: The solubility was 256000 µg/mL.

Q: Which solubility ([4]; aqueous solution, aqueous buffer, read-out: solubility) does the source give for `CN[C@H]1CC[C@@H](c2ccc(Cl)c(Cl)c2)c2ccccc21` [Drug 5, sertraline HCl] here?
A: Its solubility is 3000 µg/mL.

Q: And the solubility thermodynamic ([4]; distilled water, aqueous buffer, thermodynamic from solid, sertraline hydrochloride with or without citric acid, pH 3, read-out: equilibrium solubility)?
A: The solubility thermodynamic was 3000 µg/mL.

Q: For `O=C(N[C@@H](Cc1ccccc1)[C@@H](O)C(=O)N1C[C@@H](O)[C@@H](O)C1)c1cc2cc(Cl)ccc2[nH]1` [amorphous Drug 1, 5-chloro-1H-indole-2-carboxylic acid [(1 S)-benzyl-3-((3R, 4S)-dihydroxypyrroldin-1-yl-)-(2R)-hydroxy-3-oxypropyl] amide], which Cmax ([5]; listed as amorphous form) is on record?
A: The Cmax was 270 µg/mL.

Q: And the “[Drug] 1.5 hr.” value [6]?
A: The value was 224 µg/mL.

Q: Which Cmax ([5]; listed as crystalline form) does the source give for `O=C(N[C@@H](Cc1ccccc1)[C@@H](O)C(=O)N1C[C@@H](O)[C@@H](O)C1)c1cc2cc(Cl)ccc2[nH]1` [crystalline Drug 1, 5-chloro-1H-indole-2-carboxylic acid [(1 S)-benzyl-3-((3R, 4S)-dihydroxypyrroldin-1-yl-)-(2R)-hydroxy-3-oxypropyl] amide] here?
A: Its Cmax is 160 µg/mL.

Q: For `C#Cc1cccc(Nc2ncnc3cc(OCCOC)c(OCCOC)cc23)c1` [“A” form, [6,7-Bis(2-methoxy-ethoxy)-quinazolin-4-yl]-(3-ethynyl-phenyl)amine], which solubility ([7]; read-out: solubility in water) is on record?
A: The solubility was 102 µg/mL (≈ 259 µM).

Q: Which solubility ([7]; read-out: solubility) does the source give for `C#Cc1cccc(Nc2ncnc3cc(OCCOC)c(OCCOC)cc23)c1` [“C” form, [6,7-Bis(2-methoxy-ethoxy)-quinazolin-4-yl]-(3-ethynyl-phenyl)amine] here?
A: The solubility was 28 µg/mL (≈ 71.2 µM).
